Assay results as given in ChEMBL document CHEMBL5634112, “Synthesis and biological evaluation of fluoroquinolones containing a pyridoxine derivatives moiety” (Eur J Med Chem, 2023).
Values after ≈ are worked out from the molar mass of the structure shown.

Experiments:
Pseudomonas aeruginosa [1] = assay: Antibacterial activity against Pseudomonas aeruginosa ATCC 27853 assessed as reduction in microbial growth incubated for 24 hrs by broth microdilution method; assay type: functional
Staphylococcus aureus [2] = assay: Antibacterial activity against clinical isolate methicillin resistant Staphylococcus aureus 4771 assessed as reduction in microbial growth incubated for 24 hrs by broth microdilution method; assay type: functional
Staphylococcus aureus [3] = assay: Antibacterial activity against clinical isolate Staphylococcus aureus 1812 assessed as reduction in microbial growth incubated for 24 hrs by broth microdilution method; assay type: functional
Bacillus subtilis = assay: Antibacterial activity against Bacillus subtilis 168 assessed as reduction in microbial growth incubated for 24 hrs by broth microdilution method; assay type: functional
[4] = test system: Staphylococcus epidermidis; assay: Antibacterial activity against clinical isolate Staphylococcus epidermidis assessed as reduction in microbial growth incubated for 24 hrs by broth microdilution method; assay type: functional
Klebsiella aerogenes = assay: Antibacterial activity against clinical isolate Enterobacter aerogenes NKC 8 assessed as reduction in microbial growth incubated for 24 hrs by broth microdilution method; assay type: functional
[5] = Cytotoxicity against human MSC assessed as reduction in cell viability incubated for 72 hrs by MTT assay; assay type: toxicity, cell-based; details: MSC cells
Escherichia coli [6] = assay: Antibacterial activity against clinical isolate Escherichia coli NKC 1 assessed as reduction in microbial growth incubated for 24 hrs by broth microdilution method; assay type: functional
Pseudomonas aeruginosa [7] = assay: Antibacterial activity against clinical isolate Pseudomonas aeruginosa NKC 17 assessed as reduction in microbial growth incubated for 24 hrs by broth microdilution method; assay type: functional
Salmonella typhimurium = assay: Antibacterial activity against Salmonella typhimurium TA100 assessed as reduction in microbial growth incubated for 24 hrs by broth microdilution method; assay type: functional, Salmonella enterica subsp. enterica serovar Typhimurium; details: Salmonella enterica
Cedecea davisae = assay: Antibacterial activity against clinical isolate Cedecea davisae 1813 assessed as reduction in microbial growth incubated for 24 hrs by broth microdilution method; assay type: functional
[8] = Cytotoxicity against human CHL assessed as reduction in cell viability incubated for 72 hrs by MTT assay; assay type: toxicity, cell-based; details: CHL cells
[9] = test system: Staphylococcus auricularis; assay: Antibacterial activity against clinical isolate Staphylococcus auricularis NKC 7 assessed as reduction in microbial growth incubated for 24 hrs by broth microdilution method; assay type: functional
[10] = test system: Staphylococcus haemolyticus; assay: Antibacterial activity against clinical isolate Staphylococcus haemolyticus 1464 assessed as reduction in microbial growth incubated for 24 hrs by broth microdilution method; assay type: functional
[11] = Cytotoxicity against human HSF assessed as reduction in cell viability incubated for 72 hrs by MTT assay; assay type: toxicity, cell-based; details: HSF cells
Klebsiella pneumoniae = assay: Antibacterial activity against clinical isolate Klebsiella pneumoniae 1678 assessed as reduction in microbial growth incubated for 24 hrs by broth microdilution method; assay type: functional
Escherichia coli [12] = assay: Antibacterial activity against Escherichia coli ATCC 25922 assessed as reduction in microbial growth incubated for 24 hrs by broth microdilution method; assay type: functional
Staphylococcus aureus [13] = assay: Antibacterial activity against clinical isolate Staphylococcus aureus 4721 assessed as reduction in microbial growth incubated for 24 hrs by broth microdilution method; assay type: functional
[14] = test system: Staphylococcus epidermidis; assay: Antibacterial activity against clinical isolate Staphylococcus epidermidis NKC 37/1 assessed as reduction in microbial growth incubated for 24 hrs by broth microdilution method; assay type: functional
[15] = test system: Staphylococcus haemolyticus; assay: Antibacterial activity against clinical isolate Staphylococcus haemolyticus NKC 31/2 assessed as reduction in microbial growth incubated for 24 hrs by broth microdilution method; assay type: functional
Enterococcus faecalis = assay: Antibacterial activity against clinical isolate Enterococcus faecalis 1465 assessed as reduction in microbial growth incubated for 24 hrs by broth microdilution method; assay type: functional
Staphylococcus aureus [16] = assay: Antibacterial activity against methicillin sensitive Staphylococcus aureus ATCC 29213 assessed as reduction in microbial growth incubated for 24 hrs by broth microdilution method; assay type: functional
Micrococcus luteus = assay: Antibacterial activity against clinical isolate Micrococcus luteus assessed as reduction in microbial growth incubated for 24 hrs by broth microdilution method; assay type: functional

Structure (SMILES)	MIC (Pseudomonas aeruginosa [1])	MIC (Staphylococcus aureus [2])	MIC (Staphylococcus aureus [3])	MIC (Bacillus subtilis)	MIC [4]	MIC (Klebsiella aerogenes)	CC50 at 72 h [5]	MIC (Escherichia coli [6])	MIC (Pseudomonas aeruginosa [7])	MIC (Salmonella typhimurium)	MIC (Cedecea davisae)	CC50 at 72 h [8]	MIC [9]	MIC [10]	CC50 at 72 h [11]	MIC (Klebsiella pneumoniae)	MIC (Escherichia coli [12])	MIC (Staphylococcus aureus [13])	MIC [14]	MIC [15]	further results
CCn1cc(C(=O)O)c(=O)c2cc(F)c(N3CCNCC3)cc21 [NORFLOXACIN]	4 µg/mL	1 µg/mL	2 µg/mL	1 µg/mL	1 µg/mL	1 µg/mL	29.3 µg/mL (≈ 91.9 µM)	0.06 µg/mL	0.25 µg/mL	1 µg/mL	1 µg/mL	38.1 µg/mL (≈ 119 µM)	0.13 µg/mL	2 µg/mL	38.1 µg/mL (≈ 119 µM)	1 µg/mL	1 µg/mL	1 µg/mL	4 µg/mL	8 µg/mL	MIC (Enterococcus faecalis): > 64 µg/mL; MIC (Staphylococcus aureus [16]): 2 µg/mL; MIC (Micrococcus luteus): 8 µg/mL
COc1c(N2C[C@@H]3CCCN(Cc4nc(C)c(O)c(CO)c4CO)[C@@H]3C2)c(F)cc2c(=O)c(C(=O)O)cn(C3CC3)c12.Cl	> 64 µg/mL	0.25 µg/mL	0.5 µg/mL	2 µg/mL	2 µg/mL	4 µg/mL	31.7 µg/mL	2 µg/mL	32 µg/mL	2 µg/mL	0.25 µg/mL	24.2 µg/mL	0.03 µg/mL	0.5 µg/mL	33.9 µg/mL	64 µg/mL	> 64 µg/mL	0.5 µg/mL	0.25 µg/mL	8 µg/mL	MIC (Enterococcus faecalis): 4 µg/mL; MIC (Staphylococcus aureus [16]): 2 µg/mL; MIC (Micrococcus luteus): 2 µg/mL
COc1c(N2C[C@@H]3CCCN(Cc4cnc(C)c5c4COCO5)[C@@H]3C2)c(F)cc2c(=O)c(C(=O)O)cn(C3CC3)c12.Cl	64 µg/mL	0.03 µg/mL	0.06 µg/mL	2 µg/mL	16 µg/mL	> 64 µg/mL	9.62 µg/mL	4 µg/mL	> 64 µg/mL	2 µg/mL	0.03 µg/mL	2.34 µg/mL	0.03 µg/mL	0.03 µg/mL	5.8 µg/mL	> 64 µg/mL	2 µg/mL	0.03 µg/mL	0.03 µg/mL	1 µg/mL	MIC (Enterococcus faecalis): 1 µg/mL; MIC (Staphylococcus aureus [16]): 2 µg/mL; MIC (Micrococcus luteus): 8 µg/mL
Cc1nc(CO)c(CN2CCN(c3cc4c(cc3F)c(=O)c(C(=O)O)cn4C3CC3)CC2)c(CO)c1O.Cl	> 64 µg/mL	2 µg/mL	4 µg/mL	4 µg/mL	8 µg/mL	2 µg/mL	52.6 µg/mL	0.5 µg/mL	16 µg/mL	4 µg/mL	1 µg/mL	31.8 µg/mL	0.25 µg/mL	4 µg/mL	38 µg/mL	8 µg/mL	64 µg/mL	2 µg/mL	1 µg/mL	16 µg/mL	MIC (Enterococcus faecalis): 32 µg/mL; MIC (Staphylococcus aureus [16]): 0.5 µg/mL; MIC (Micrococcus luteus): 2 µg/mL
CCn1cc(C(=O)O)c(=O)c2cc(F)c(N3CCN(Cc4cnc(C)c5c4COCO5)CC3)cc21.Cl	> 64 µg/mL	1 µg/mL	2 µg/mL	2 µg/mL	2 µg/mL	1 µg/mL	21.2 µg/mL	0.13 µg/mL	2 µg/mL	2 µg/mL	0.25 µg/mL	9.78 µg/mL	0.03 µg/mL	1 µg/mL	23.4 µg/mL	4 µg/mL	4 µg/mL	1 µg/mL	2 µg/mL	8 µg/mL	MIC (Enterococcus faecalis): 32 µg/mL; MIC (Staphylococcus aureus [16]): 2 µg/mL; MIC (Micrococcus luteus): 4 µg/mL
CCCC1OCc2c(CN3CCC[C@H]4CN(c5c(F)cc6c(=O)c(C(=O)O)cn(C7CC7)c6c5OC)C[C@H]43)cnc(C)c2O1 (stereo partly specified)	> 64 µg/mL	4 µg/mL	4 µg/mL	2 µg/mL	2 µg/mL	64 µg/mL	2.91 µg/mL (≈ 4.8 µM)	4 µg/mL	> 64 µg/mL	4 µg/mL	2 µg/mL	2.46 µg/mL (≈ 4.05 µM)	0.13 µg/mL	2 µg/mL	2.34 µg/mL (≈ 3.86 µM)	> 64 µg/mL	> 64 µg/mL	2 µg/mL	4 µg/mL	64 µg/mL	MIC (Enterococcus faecalis): 64 µg/mL; MIC (Staphylococcus aureus [16]): 2 µg/mL; MIC (Micrococcus luteus): 2 µg/mL
COc1c(N2C[C@@H]3CCCN(Cc4c(CO)nc(C)c(O)c4CO)[C@@H]3C2)c(F)cc2c(=O)c(C(=O)O)cn(C3CC3)c12.Cl	> 64 µg/mL	8 µg/mL	0.5 µg/mL	2 µg/mL	2 µg/mL	8 µg/mL	20.6 µg/mL	4 µg/mL	32 µg/mL	2 µg/mL	0.5 µg/mL	17.6 µg/mL	0.06 µg/mL	0.25 µg/mL	35.2 µg/mL	64 µg/mL	2 µg/mL	0.25 µg/mL	0.25 µg/mL	8 µg/mL	MIC (Enterococcus faecalis): 4 µg/mL; MIC (Staphylococcus aureus [16]): 2 µg/mL; MIC (Micrococcus luteus): 2 µg/mL
COc1c(N2C[C@@H]3CCCN(Cc4cnc(C)c5c4COC(C)(C)O5)[C@@H]3C2)c(F)cc2c(=O)c(C(=O)O)cn(C3CC3)c12	> 64 µg/mL	4 µg/mL	1 µg/mL	2 µg/mL	2 µg/mL	64 µg/mL	3.84 µg/mL (≈ 6.48 µM)	4 µg/mL	> 64 µg/mL	4 µg/mL	0.5 µg/mL	2.85 µg/mL (≈ 4.81 µM)	0.03 µg/mL	0.5 µg/mL	3.44 µg/mL (≈ 5.8 µM)	32 µg/mL	> 64 µg/mL	0.5 µg/mL	1 µg/mL	32 µg/mL	MIC (Enterococcus faecalis): 32 µg/mL; MIC (Staphylococcus aureus [16]): 2 µg/mL; MIC (Micrococcus luteus): 4 µg/mL
Cc1ncc(CN2CCN(c3cc4c(cc3F)c(=O)c(C(=O)O)cn4C3CC3)CC2)c2c1OCOC2.Cl	32 µg/mL	2 µg/mL	0.25 µg/mL	2 µg/mL	0.5 µg/mL	16 µg/mL	69.5 µg/mL	2 µg/mL	32 µg/mL	0.5 µg/mL	0.03 µg/mL	14.9 µg/mL	0.03 µg/mL	0.13 µg/mL	40.3 µg/mL	16 µg/mL	8 µg/mL	0.13 µg/mL	0.25 µg/mL	8 µg/mL	MIC (Enterococcus faecalis): 8 µg/mL; MIC (Staphylococcus aureus [16]): 1 µg/mL; MIC (Micrococcus luteus): 16 µg/mL
COc1c(N2C[C@@H]3CCCN(Cc4cnc(C)c(O)c4CO)[C@@H]3C2)c(F)cc2c(=O)c(C(=O)O)cn(C3CC3)c12.Cl	> 64 µg/mL	0.13 µg/mL	0.25 µg/mL	2 µg/mL	2 µg/mL	8 µg/mL	48.4 µg/mL	4 µg/mL	64 µg/mL	4 µg/mL	0.13 µg/mL	18.6 µg/mL	0.03 µg/mL	0.13 µg/mL	56.7 µg/mL	> 64 µg/mL	> 64 µg/mL	0.13 µg/mL	0.06 µg/mL	8 µg/mL	MIC (Enterococcus faecalis): 1 µg/mL; MIC (Staphylococcus aureus [16]): 2 µg/mL; MIC (Micrococcus luteus): 4 µg/mL
CCn1cc(C(=O)O)c(=O)c2cc(F)c(N3CCN(Cc4nc(C)c5c(c4CO)COC(C)(C)O5)CC3)cc21	> 64 µg/mL	4 µg/mL	8 µg/mL	2 µg/mL	8 µg/mL	32 µg/mL	16.2 µg/mL (≈ 30 µM)	16 µg/mL	64 µg/mL	2 µg/mL	2 µg/mL	7.05 µg/mL (≈ 13 µM)	0.25 µg/mL	4 µg/mL	24.9 µg/mL (≈ 46 µM)	> 64 µg/mL	> 64 µg/mL	4 µg/mL	4 µg/mL	32 µg/mL	MIC (Enterococcus faecalis): > 64 µg/mL; MIC (Staphylococcus aureus [16]): 2 µg/mL; MIC (Micrococcus luteus): 4 µg/mL
COc1c(N2C[C@@H]3CCCN(Cc4nc(C)c5c(c4CO)COC(C)(C)O5)[C@@H]3C2)c(F)cc2c(=O)c(C(=O)O)cn(C3CC3)c12	> 64 µg/mL	1 µg/mL	2 µg/mL	2 µg/mL	4 µg/mL	16 µg/mL	7.26 µg/mL (≈ 11.7 µM)	8 µg/mL	> 64 µg/mL	2 µg/mL	0.5 µg/mL	6.41 µg/mL (≈ 10.3 µM)	0.03 µg/mL	1 µg/mL	11.3 µg/mL (≈ 18.1 µM)	64 µg/mL	> 64 µg/mL	1 µg/mL	2 µg/mL	32 µg/mL	MIC (Enterococcus faecalis): 16 µg/mL; MIC (Staphylococcus aureus [16]): 2 µg/mL; MIC (Micrococcus luteus): 2 µg/mL
